Test results published in patent US9302999B2, “Substituted triazoles as herbicides” (E. I. DU PONT DE NEMOURS AND COMPANY, priority 2012, dated 2016).
Read-outs that look alike come from different tables or passages of the source.

Experiments:
Type in all cases: in vivo
[1] = test system: crabgrass, large (large crabgrass, Digitaria sanguinalis); test: Test A pre-/postemergence: crabgrass, large; conditions: Digitaria sanguinalis, 240 h; for pest or weed control at 125 g/ha: 125 g ai/ha; for pest or weed control at 500 g/ha: 500 g ai/ha
How it was run: (§1)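 Visual 0–100 injury ratings (0 no effect, 100 complete control) taken about ten days after treatment, relative to untreated controls. Preemergence treatment was a directed soil spray; postemergence plants were 2–10 cm tall at one- to two-leaf stage. Soil: loam/sand blend.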

[2] = test system: velvetleaf (Abutilon theophrasti); test: Test A pre-/postemergence: velvetleaf; conditions: Abutilon theophrasti, 240 h; for pest or weed control at 125 g/ha: 125 g ai/ha; for pest or weed control at 500 g/ha: 500 g ai/ha
How it was run: as §1

corn (Zea mays) = test: Test A pre-/postemergence: corn; conditions: Zea mays, 240 h; for plant injury at 125 g/ha / plant injury at 500 g/ha: post-emergence, Postemergence, read-out: Corn plant response rating; for plant injury at 125 g/ha / Corn plant response rating (crop injury, 0 = no effect, 100 = complete kill) at 125 g/ha: 125 g ai/ha; for plant injury at 500 g/ha / Corn plant response rating (crop injury, 0 = no effect, 100 = complete kill) at 500 g/ha: 500 g ai/ha; for plant injury at 500 g/ha: visual rating on 0 to 100 scale (0 no effect, 100 complete control), approximately ten days; for Corn plant response rating (crop injury, 0 = no effect, 100 = complete kill) at 125 g/ha / Corn plant response rating (crop injury, 0 = no effect, 100 = complete kill) at 500 g/ha: pre-emergence, Preemergence
How it was run: as §1

[3] = post-emergence, Postemergence, 0 to 100 scale, 0 is no effect, 100 is complete control, read-out: Crabgrass, Large plant response rating
[4] = post-emergence, Postemergence, visual rating on 0 to 100 scale (0 no effect, 100 complete control), approximately ten days, read-out: Crabgrass, Large plant response rating
[5] = pre-emergence, Preemergence, 0 to 100 scale (0 no effect, 100 complete control), read-out: Plant response rating, Crabgrass, Large
[6] = post-emergence, Postemergence, 0 to 100 scale, 0 is no effect, 100 is complete control, read-out: Velvetleaf plant response rating
[7] = post-emergence, Postemergence, visual rating on 0 to 100 scale (0 no effect, 100 complete control), approximately ten days, read-out: Velvetleaf plant response rating
[8] = pre-emergence, Preemergence, 0 to 100 scale (0 no effect, 100 complete control), read-out: Plant response rating, Velvetleaf
[9] = 0 to 100 scale, 0 is no effect, 100 is complete control
[10] = 0 to 100 scale (0 no effect, 100 complete control)

`COc1nn(-c2ccc(C(F)(F)F)cc2)nc1Cn1ccc(C(F)(F)F)n1` [Compound 17, 4-methoxy-2-[4-(trifluoromethyl)phenyl]-5-[[3-(trifluoromethyl)-1H-pyrazol-1-yl]methyl]-2H-1,2,3-triazole] gave a pest or weed control at 125 g/ha [1, 3] of 90%, a pest or weed control at 500 g/ha [1, 4] of 90% and a pest or weed control at 125 g/ha [1, 5] of 100%. It also gave a pest or weed control at 500 g/ha ([1]; pre-emergence, Preemergence, 0 to 100 scale, 0 is no effect, 100 is complete control, read-out: Plant response rating, Crabgrass, Large) of 100%, a pest or weed control at 125 g/ha [2, 6] of 90% and a pest or weed control at 500 g/ha [2, 7] of 100%. For the same compound, the pest or weed control at 125 g/ha [2, 8] was 30%, the pest or weed control at 500 g/ha ([2]; pre-emergence, Preemergence, 0 to 100 scale, 0 is no effect, 100 is complete control, read-out: Plant response rating, Velvetleaf) was 40% and the plant injury at 125 g/ha (corn (Zea mays); [9]) was 30%. It also gave a plant injury at 500 g/ha (corn (Zea mays)) of 30%, a Corn plant response rating (crop injury, 0 = no effect, 100 = complete kill) at 125 g/ha (corn (Zea mays); [10]) of 0% and a Corn plant response rating (crop injury, 0 = no effect, 100 = complete kill) at 500 g/ha (corn (Zea mays); [9]) of 20%.
For `CCc1nn(-c2ccc(C(F)(F)F)cc2)nc1Oc1cccc(OC(F)(F)F)c1` [Compound 125, 4-ethyl-5-[3-(trifluoromethoxy)phenoxy]-2-[4-(trifluoromethyl)phenyl]-2H-1,2,3-triazole], the pest or weed control at 125 g/ha [1, 3] was 60%, the pest or weed control at 500 g/ha [1, 4] was 90% and the pest or weed control at 125 g/ha ([1]; pre-emergence, Preemergence, 0 to 100 scale where 0 is no effect and 100 is complete control, read-out: Plant response rating, Crabgrass, Large) was 80%. For the same compound, the pest or weed control at 500 g/ha [1, 5] was 90%, the pest or weed control at 125 g/ha [2, 6] was 30% and the pest or weed control at 500 g/ha [2, 7] was 70%. The pest or weed control at 125 g/ha ([2]; pre-emergence, Preemergence, 0 to 100 scale where 0 is no effect and 100 is complete control, read-out: Plant response rating, Velvetleaf) was 0%, the pest or weed control at 500 g/ha [2, 8] was 50% and the plant injury at 125 g/ha (corn (Zea mays); [9]) was 20%. The plant injury at 500 g/ha (corn (Zea mays)) was 30%, the Corn plant response rating (crop injury, 0 = no effect, 100 = complete kill) at 125 g/ha (corn (Zea mays); 0 to 100 scale where 0 is no effect and 100 is complete control) was 0% and the Corn plant response rating (crop injury, 0 = no effect, 100 = complete kill) at 500 g/ha (corn (Zea mays); [10]) was 0%.
